PMC9038752, “Molecular mechanisms of bifunctional vitamin D receptor agonist-histone deacetylase inhibitor hybrid molecules in triple-negative breast cancer” (Scientific Reports, 2022)
Converted amounts (≈) assume the structure as drawn.

Experiments:
[1] = system: 4T1 mouse model of triple negative breast cancer; set-up: method as in PMID 28847749; details: aggressive 4T1 mouse model of TNBC; cited from earlier work
4TO7 cells = assay: RealTime-Glo MT cell viability assay, 4TO7; assay type: cell-based, mouse; details: 24 h
Procedure: (§1) Figure 5 (a) and (b) Analysis of induced Cyp24a1 expression in 4TO7 (a) and 4T1 (b) cells to test for VDR agonism of DK-406 and heterocyclic analogues after 24 h treatment. c-e. Analysis of the cytotoxicity of hybrid compounds after 24 h using the MTGlo assay (see Methods for details) in 4TO7 (c), 4T1 (d) and MDA-MB-231 (e) cells. […] Each condition was compared to control. *: p ≤ 0.05, **: p ≤ 0.01, ***: p ≤ 0.001, ****: p ≤ 0.0001, ns: not significant.
(§2) As previously, we were interested in studying the efficacy of hybrids in models of TNBC. We used the 4T1 cell line[20] as well as the related TNBC cell line 4TO7, which was derived from the same mouse tumor as 4T1 cells in Balb/c mice[33]. 4TO7 cells readily form primary tumors. […] These lines also have the advantage that anti-tumor efficacy studies can be performed in Balb/c mice, which have intact immune systems. Compounds were initially tested for VDR agonist activity in 4TO7 cells by screening induction of the VDR target gene Cyp24a1. […]
(§3) The assay was performed to assess cell viability in order to determine analogue cytotoxicity. […] Luminescence was measured using a 1420 Luminescence Counter Victor Light (PerkinElmer), normalized to control, and plotted. […]

MB-MDA231 cells = assay: RealTime-Glo MT cell viability assay, MB-MDA231; assay type: cell-based; details: human TNBC cell line MB-MDA231, 24 h
Procedure: as §1, §2, §3

[2] = Aqueous solubility after sonication; assay type: physicochemical; details: after sonication for 30 min
Description: The synthesis of the B-ring series mirrored that of the A-ring series producing B-ring hybrids AM-191 (n = 1, 27a), AM-192 (n = 3, 27b), and AM-193 (n = 5, 27c) in 9 steps (Fig. 3).

4T1 cells = assay: RealTime-Glo MT cell viability assay, 4T1; assay type: cell-based, mouse; details: 24 h
Procedure: as §1, §2, §3

SMILES	tumor growth and metastasis [1]	cytotoxicity (MT-Glo viability) (4TO7 cells)	potency in MT-Glo assay relative to DK-406 (4TO7 cells)	cytotoxicity (MT-Glo viability) (MB-MDA231 cells)	higher solubility in water compared to DK-367 [2]	solubility at 30 min ([2]; water)	cytotoxicity (MT-Glo viability) (4T1 cells)	potency in MT-Glo assay relative to DK-406 (4T1 cells)
CCC(CC)(c1ccc(C(=O)NCCCCCC(=O)NO)cc1)c1ccc(OCC(O)C(C)(C)C)c(C)c1 (centres unmarked) [DK-406]	reduced tumor growth and metastasis	–	–	–	–	–	–	–
CCC(CC)(c1ccc(OCCCCCC(=O)NO)cc1)c1ccc(OCC(O)C(C)(C)C)c(C)n1 (centres unmarked) [AM-193]	–	most potent compound tested	at least tenfold	potency of AM-193 as a cytotoxic agent was also confirmed	27%	2.43 µg/mL (≈ 4.85 µM)	most potent compound tested	at least tenfold
